Test results published in US8791132B2, “Compounds and methods for treatment of hypertension” (Medivation Technologies, Inc., priority 2011, dated 2014).
Read-outs that look alike come from different tables or passages of the source.

Legend:
[1] = biological target: T1, human recombinant adrenergic α2B receptor (Homo sapiens, UniProt P18089); assay: Radioligand binding, adrenergic α2B ([3H]Rauwolscine); conditions: [3H]Rauwolscine; for Percentage inhibition of ligand binding, Adrenergic α2B: 0.03 µM
T1 construct: expressed in transfected cells; host or cells: CHO-K1
T1 sequence (P18089 1-450): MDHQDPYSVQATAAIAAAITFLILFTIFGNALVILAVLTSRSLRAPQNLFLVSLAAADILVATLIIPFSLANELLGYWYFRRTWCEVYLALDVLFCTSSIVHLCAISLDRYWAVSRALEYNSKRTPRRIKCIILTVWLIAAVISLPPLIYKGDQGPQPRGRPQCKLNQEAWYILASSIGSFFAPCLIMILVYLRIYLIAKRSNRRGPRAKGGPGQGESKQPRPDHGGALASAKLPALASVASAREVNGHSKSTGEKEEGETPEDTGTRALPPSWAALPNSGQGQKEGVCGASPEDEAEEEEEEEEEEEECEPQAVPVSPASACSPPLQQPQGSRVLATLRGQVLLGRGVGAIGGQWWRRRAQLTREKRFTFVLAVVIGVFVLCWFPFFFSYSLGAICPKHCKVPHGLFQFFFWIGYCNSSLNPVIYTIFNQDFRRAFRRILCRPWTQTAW
In short: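 Receptor expressed in CHO-K1 cells, assayed in 50 mM Tris-HCl pH 7.4 with 12.5 mM MgCl2, 1 mM EDTA and 0.2% BSA. Compounds were incubated with 2.5 nM [3H]Rauwolscine for 60 min at 25° C; 10 μM Prazosin defined non-specific binding. Filter counting gave percent inhibition of specific binding.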

[2] = biological target: T2, human recombinant adrenergic α2A receptor (Homo sapiens, UniProt P08913); assay: Radioligand binding, adrenergic α2A ([3H]MK-912); conditions: [3H]MK-912; for Percentage inhibition of ligand binding, Adrenergic α2A: 0.1 µM
T2 construct: expressed in transfected cells; host or cells: insect Sf9 cells
T2 sequence (P08913 1-465): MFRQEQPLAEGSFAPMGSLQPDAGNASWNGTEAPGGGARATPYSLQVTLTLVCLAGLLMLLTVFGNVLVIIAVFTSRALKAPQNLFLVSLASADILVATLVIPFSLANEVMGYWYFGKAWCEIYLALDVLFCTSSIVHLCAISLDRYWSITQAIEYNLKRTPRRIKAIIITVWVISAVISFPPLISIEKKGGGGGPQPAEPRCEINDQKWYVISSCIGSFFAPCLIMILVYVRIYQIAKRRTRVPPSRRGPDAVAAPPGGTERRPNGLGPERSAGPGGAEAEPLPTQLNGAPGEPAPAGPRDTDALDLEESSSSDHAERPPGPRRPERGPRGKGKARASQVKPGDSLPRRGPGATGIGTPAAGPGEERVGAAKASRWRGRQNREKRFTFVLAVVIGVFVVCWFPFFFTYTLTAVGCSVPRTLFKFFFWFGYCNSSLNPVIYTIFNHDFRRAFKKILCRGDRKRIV
In short: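 Sf9-expressed receptor was incubated with compound for 60 min at 25 °C in modified Tris-HCl buffer, pH 7.4. Nonspecific binding was taken as that remaining with 10 μM WB-4101.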

[3] = biological target: T3, rat adrenergic α1B receptor (Rattus norvegicus, UniProt P15823); assay: Radioligand binding, adrenergic α1B ([3H]Prazosin); conditions: [3H]Prazosin
T3 construct: rat adrenergic α1B receptor obtained from Wistar Rat liver; from tissue; host or cells: Wistar rat liver
T3 sequence (P15823 1-515): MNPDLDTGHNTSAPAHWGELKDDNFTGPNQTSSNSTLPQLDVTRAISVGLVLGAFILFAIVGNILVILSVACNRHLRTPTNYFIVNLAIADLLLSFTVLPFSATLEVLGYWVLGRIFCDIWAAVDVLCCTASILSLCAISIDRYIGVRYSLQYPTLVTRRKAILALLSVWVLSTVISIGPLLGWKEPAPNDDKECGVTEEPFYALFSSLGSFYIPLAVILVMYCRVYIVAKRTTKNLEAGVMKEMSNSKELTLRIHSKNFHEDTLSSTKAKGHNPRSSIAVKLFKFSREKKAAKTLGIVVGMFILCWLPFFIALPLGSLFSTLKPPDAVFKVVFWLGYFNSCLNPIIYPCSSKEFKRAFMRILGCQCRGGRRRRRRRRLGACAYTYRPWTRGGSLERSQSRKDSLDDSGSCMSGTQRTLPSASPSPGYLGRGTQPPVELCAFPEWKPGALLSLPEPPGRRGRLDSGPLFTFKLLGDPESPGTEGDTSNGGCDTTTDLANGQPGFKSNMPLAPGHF
In short: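 Filter binding with Wistar rat liver α1B preparation: test compound plus 0.25 nM [3H]prazosin, 1 h at 25° C in modified Tris-HCl buffer pH 7.4.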

[4] = read-out: Percentage inhibition of ligand binding, Adrenergic α2B (0.03 μM), compound at 0.03 μM, repeat datapoints each shown
[5] = read-out: Percentage inhibition of ligand binding, Adrenergic α2A (0.1 μM), compound at 0.1 μM, repeat datapoints each shown
[6] = read-out: Percentage inhibition of ligand binding, Adrenergic α1B (0.1 μM), compound at 0.1 μM, repeat datapoints each shown
[7] = compound at 0.03 μM, repeat assays, each datapoint shown, read-out: Percentage inhibition of ligand binding, Adrenergic α2B
[8] = compound at 0.1 μM, repeat assays, each datapoint shown, read-out: Percentage inhibition of ligand binding, Adrenergic α1B
[9] = compound at 0.03 μM, repeat assays, each datapoint shown
[10] = compound at 0.1 μM, repeat assays, each datapoint shown

Cc1ccc(CCn2c3c(c4c(Cl)ccc(Cl)c42)CCN(C)CC3)cn1 [II-246, 7,10-dichloro-1,2,3,4,5,6-hexahydro-3-methyl-6-(2-(6-methylpyridin-3-yl)ethyl)azepino [4,5-b]indole]
inhibition at 0.03 µM [1, 4]: 5% | inhibition at 0.1 µM [2, 5]: 47% | inhibition at 0.1 µM [3, 6]: -2%

Cc1ccc(CCn2c3c(c4c(Br)ccc(Cl)c42)CN(C)CC3)cn1 [II-247, 9-bromo-6-chloro-2,3,4,5-tetrahydro-2-methyl-5-(2-(6-methylpyridin-3-yl)ethyl)-1H-pyrido[4,3-b]indole]
inhibition at 0.03 µM [1, 4]: 19% | inhibition at 0.1 µM [2, 5]: 83% | inhibition at 0.1 µM [3, 6]: 3%

Cc1ccc(CCn2c3c(c4c(Cl)ccc(F)c42)CN(C)CC3)cn1 [II-248, 9-chloro-6-fluoro-2,3,4,5-tetrahydro-2-methyl-5-(2-(6-methylpyridin-3-yl)ethyl)-1H-pyrido[4,3-b]indole]
inhibition at 0.03 µM [1, 4]: 5% | inhibition at 0.1 µM [2, 5]: 88% | inhibition at 0.1 µM [3, 6]: 4%

Cc1ccc(CCn2c3c(c4c(Cl)ccc(Cl)c42)CCN(C)C3)cn1 [II-249, 5,8-dichloro-2,3,4,9-tetrahydro-2-methyl-9-(2-(6-methylpyridin-3-yl)ethyl)-1H-pyrido[3,4-b]indole]
inhibition at 0.03 µM [1, 4]: 4% | inhibition at 0.1 µM [2, 5]: 74% | inhibition at 0.1 µM [3, 6]: 6%

Cc1ccc(CCn2c3c(c4c(F)ccc(F)c42)CN(C)CC3)cn1 [II-250]
inhibition at 0.03 µM [1, 4]: 6% | inhibition at 0.1 µM [2, 5]: 57% | inhibition at 0.1 µM [3, 6]: -5%

Cc1ccc(CCn2c3c(c4c(Br)ccc(Br)c42)CN(C)CC3)cn1 [II-251]
inhibition at 0.03 µM [1, 4]: -4% | inhibition at 0.1 µM [2, 5]: 81% | inhibition at 0.1 µM [3, 6]: -7%

Cc1ccc(CCn2c3c(c4c(Cl)ccc(Br)c42)CN(C)CC3)cn1 [II-252]
inhibition at 0.03 µM [1, 4]: 1% | inhibition at 0.1 µM [2, 5]: 91% | inhibition at 0.1 µM [3, 6]: -1%

Cc1ccc(CCn2c3c(c4c(F)ccc(Cl)c42)CN(C)CC3)cn1 [II-253]
inhibition at 0.03 µM [1, 4]: 16% | inhibition at 0.1 µM [2, 5]: 54% | inhibition at 0.1 µM [3, 6]: 9%

Cc1ccc2c(c1)c1c(n2CC(N=[N+]=[N-])c2cnccn2)CCN2CCCC12 (stereo not drawn) [II-261, 6-(2-azido-2-pyrazin-2-yl-ethyl)-9-methyl-2,3,4,5,6,10c-hexahydro-1H-3a,6-diaza-cyclopenta[c]fluorene]
inhibition at 0.03 µM [1, 4]: 103% | inhibition at 0.1 µM [2, 5]: 70% | inhibition at 0.1 µM [3, 6]: 71%

Cc1ccc2c(c1)c1c(n2CC(C(=O)O)c2ccncc2)CCN(C)C1 (stereo not drawn) [II-262, 3-(2,8-dimethyl-3,4-dihydro-1H-pyrido[4,3-b]indol-5(2H)-yl)-2-(pyridin-4-yl)propanoic acid]
inhibition at 0.03 µM [1, 4]: 11% | inhibition at 0.1 µM [2, 5]: 10% | inhibition at 0.1 µM [3, 6]: 3%

Cc1ccc2c(c1)c1c(n2CC(C(N)=O)c2ccncc2)CCN(C)C1 (stereo not drawn) [II-263]
inhibition at 0.03 µM [1, 4]: 10% | inhibition at 0.1 µM [2, 5]: 10% | inhibition at 0.1 µM [3, 6]: 2%

Cc1cnc2c(c1)c1c(n2CC(N=[N+]=[N-])c2ccncc2)CCN(C)C1 (stereo not drawn) [V-2, 9-(2-azido-2-(pyridin-4-yl)ethyl)-3,6-dimethyl-6,7,8,9-tetrahydro-5H-pyrrolo[2,3-b:4,5-c′]dipyridine]
inhibition at 0.03 µM [1, 4]: 61% | inhibition at 0.1 µM [2, 5]: 2% | inhibition at 0.1 µM [3, 6]: 49%

Cc1ccc2c(c1)c1c(n2CC(C)(N=[N+]=[N-])c2cccnc2)CCN(C)C1 (stereo not drawn) [V-3, 5-(2-azido-2-(pyridin-3-yl)propyl)-2,8-dimethyl-2,3,4,5-tetrahydro-1H-pyrido[4,3-b]indole]
inhibition at 0.03 µM [1, 4]: 71% | inhibition at 0.1 µM [2, 5]: 40% | inhibition at 0.1 µM [3, 6]: 22%

Cc1ccc2c(c1)c1c(n2CC(OCC(=O)O)c2ccncc2)CCN2CCCC12 (stereo not drawn) [V-15, 2-(2-(10-methyl-2,3,5,6-tetrahydro-1H-indolizino[7,8-b]indol-7(11cH)-yl)-1-(pyridin-4-yl)ethoxy)acetic acid]
inhibition at 0.03 µM [1, 4]: 20% | inhibition at 0.1 µM [2, 5]: 7% | inhibition at 0.1 µM [3, 6]: 4%

Cc1ccc2c(c1)c1c(n2CC(N=[N+]=[N-])c2ccc(C(N)=O)nc2)CCN(C)C1 (stereo not drawn) [V-22, 5-[1-azido-2-(2,8-dimethyl-1,2,3,4-tetrahydro-pyrido[4,3-b]indol-5-yl)-ethyl]-pyridine-2-carboxylic acid amide]
inhibition at 0.03 µM [1, 4]: 90% | inhibition at 0.1 µM [2, 5]: 18% | inhibition at 0.1 µM [3, 6]: 28%

Cc1ccc2c(c1)c1c(n2CC(N=[N+]=[N-])c2ccc(F)cc2)CCN2CCCC12 (stereo not drawn) [V-23, 7-(2-azido-2-(4-fluorophenyl)ethyl)-10-methyl-2,3,5,6,7,11c-hexahydro-1H-indolizino[7,8-b]indole]
inhibition at 0.03 µM [1, 4]: 105% | inhibition at 0.1 µM [2, 5]: 109% | inhibition at 0.1 µM [3, 6]: 94%

CN1CCc2c(c3cc(C(F)(F)F)ccc3n2CC(O)c2ccncc2)C1 (stereo not drawn) [compound 6, 2-(2-methyl-8-(trifluoromethyl)-3,4-dihydro-1H-pyrido[4,3-b]indol-5(2H)-yl)-1-(pyridin-4-yl)ethanol]
inhibition at 0.03 µM [1, 7]: 62% | inhibition at 0.1 µM ([2]; compound at 0.1 μM, repeat assays, each datapoint shown, read-out: Percentage inhibition of ligand binding, Adrenergic α2A): 2% | inhibition at 0.1 µM [3, 8]: 8%

Cc1ccc2c(c1)c1c(n2CC(O)c2cccnc2)CCNC1 (stereo not drawn) [compound 9, 2-(8-methyl-1,2,3,4-tetrahydro-pyrido[4,3-b]indol-5-yl)-1-pyridin-3-yl-ethanol]
Percentage inhibition of ligand binding, Adrenergic α2B [1, 9]: 36% | Percentage inhibition of ligand binding, Adrenergic α2A [2, 10]: −4% | Percentage inhibition of ligand binding, Adrenergic α1B ([3]; compound at 0.1 μM, repeat assays, each datapoint shown, 0.1 µM): 5%

Cc1ccc2c(c1)c1c(n2CC(O)c2ccncc2)CCN(C)CC1 (stereo not drawn) [compound 13, 2-(3,9-dimethyl-2,3,4,5-tetrahydroazepino[4,5-b]indol-6(1H)-yl)-1-(pyridin-4-yl)ethanol]
Percentage inhibition of ligand binding, Adrenergic α2B [1, 9]: 92% | Percentage inhibition of ligand binding, Adrenergic α2A [2, 10]: 18% | inhibition at 0.1 µM [3, 8]: 83%

CN1CCc2c(n(CC(O)c3ccncc3)c3ccc(Cl)cc23)CC1 (stereo not drawn) [compound 15, 2-(9-chloro-3-methyl-2,3,4,5-tetrahydroazepino[4,5-b]indol-6(1H)-yl)-1-(pyridin-4-yl)ethanol]
Percentage inhibition of ligand binding, Adrenergic α2B [1, 9]: 93% | Percentage inhibition of ligand binding, Adrenergic α2A [2, 10]: 19% | inhibition at 0.1 µM [3, 8]: 93%

CN1Cc2c(n(CC(O)c3ccncc3)c3ncccc23)C(C)(C)C1 (stereo not drawn) [compound 17, 1-pyridin-4-yl-2-(6,8,8-trimethyl-5,6,7,8-tetrahydro-1,6,9-triaza-fluoren-9-yl)-ethanol]
inhibition at 0.03 µM [1, 7]: 37% | Percentage inhibition of ligand binding, Adrenergic α2A [2, 10]: 19% | inhibition at 0.1 µM [3, 8]: 18%
